The results in this text go back to US20210401773A1 (priority 2020, published 2021).

The subject of the assay is COVID-19. Briefly: Clinical trials/studies: case reports of ye-[…] in people with COVID-19. The class given is in vivo. Particulars: case 2: taken before ye-COVIDICIN; they got worse.

Consider `CCN(CCO)CCCC(C)Nc1ccnc2cc(Cl)ccc12` (stereo not shown) [Hydroxychloroquine], for which the “Effect on COVID-19 in patient” value is reported as “did not work”.
